Data published in ChEMBL document CHEMBL1154899, “Synthesis and biological evaluation of caffeic acid 3,4-dihydroxyphenethyl ester” (J Nat Prod, 2010).

Tests used:
Format in all cases: functional
SF-539 = assay: Antiproliferative activity against human SF539 cells by SRB assay
Malme-3M = assay: Antiproliferative activity against human MALME-3M cells by SRB assay
UACC-62 = assay: Antiproliferative activity against human UACC62 cells by SRB assay
786-0 [1] = assay: Antiproliferative activity against human 786-0 cells by SRB assay
TK-10 = assay: Antiproliferative activity against human TK10 cells by SRB assay
MDA-MB-231 = assay: Antiproliferative activity against human MDA-MB-231 cells by SRB assay
UACC-257 = assay: Antiproliferative activity against human UACC257 cells assessed as cell growth at 0.5 uM by SRB assay; settings: read-out: Activity
OVCAR-3 = assay: Antiproliferative activity against human OVCAR-3 cells assessed as cell growth at 0.5 uM by SRB assay; settings: read-out: Activity
786-0 [2] = assay: Antiproliferative activity against human 786-0 cells assessed as cell growth at 0.5 uM by SRB assay; settings: read-out: Activity
DU-145 = assay: Antiproliferative activity against human DU145 cells assessed as cell growth at 0.5 uM by SRB assay; settings: read-out: Activity
[3] = Antiproliferative activity against human […] cells assessed as cell growth at 0.5 uM by SRB assay; settings: read-out: Activity
NCI-H460 [4] = assay: Antiproliferative activity against human NCI-H460 cells assessed as cell growth at 0.5 uM by SRB assay; settings: read-out: Activity
SNB-19 = assay: Antiproliferative activity against human SNB19 cells assessed as cell growth at 0.5 uM by SRB assay; settings: read-out: Activity
MDA-MB-435 = assay: Antiproliferative activity against human MDA-MB-435 cells assessed as cell growth at 0.5 uM by SRB assay; settings: read-out: Activity
NCI-H23 = assay: Antiproliferative activity against human NCI-H23 cells assessed as cell growth at 5 uM by SRB assay; settings: read-out: Activity
NCI-H322M = assay: Antiproliferative activity against human NCI-H322M cells assessed as cell growth at 5 uM by SRB assay; settings: read-out: Activity
NCI-H460 [5] = assay: Antiproliferative activity against human NCI-H460 cells assessed as cell growth at 5 uM by SRB assay; settings: read-out: Activity
[6] = read-out: pLC50 (the source's name) (converted)
[7] = read-out: LC50 (the source's name)

With `O=C(/C=C/c1ccc(O)c(O)c1)OCCc1ccc(O)c(O)c1` the CC50 (SF-539; [6]) was > 50.1 µM, the TGI (SF-539; read-out: pTGI (converted)) was 24 µM and the GI50 (Malme-3M; read-out: GI50) was 18.6 µM. For the same molecule, the CC50 (Malme-3M; [7]) was > 50 µM, the TGI (Malme-3M; read-out: TGI) was > 50 µM and the GI50 (Malme-3M; read-out: pGI50 (converted)) was 18.6 µM. For the same molecule, the CC50 (Malme-3M; [6]) was > 50.1 µM, the TGI (Malme-3M; read-out: pTGI) was > 50.1 µM and the GI50 (UACC-62; read-out: GI50) was 5.33 µM. For the same molecule, the CC50 (UACC-62; [7]) was > 50 µM, the TGI (UACC-62; read-out: TGI) was 38.3 µM and the GI50 (UACC-62; read-out: pGI50 (converted)) was 5.37 µM. For the same molecule, the CC50 (UACC-62; [6]) was > 50.1 µM, the TGI (UACC-62; read-out: pTGI (converted)) was 38 µM and the GI50 (786-0 [1]; read-out: GI50) was 13.5 µM. The CC50 (786-0 [1]; [7]) was > 50 µM, the TGI (786-0 [1]; read-out: TGI) was > 50 µM and the GI50 (786-0 [1]; read-out: pGI50 (converted)) was 13.5 µM. For the same molecule, the CC50 (786-0 [1]; [6]) was > 50.1 µM, the TGI (786-0 [1]; read-out: pTGI) was > 50.1 µM and the GI50 (TK-10; read-out: GI50) was 28.1 µM. The CC50 (TK-10; [7]) was > 50 µM, the TGI (TK-10; read-out: TGI) was > 50 µM and the GI50 (TK-10; read-out: pGI50 (converted)) was 28.2 µM. The CC50 (TK-10; [6]) was > 50.1 µM, the TGI (TK-10; read-out: pTGI) was > 50.1 µM and the GI50 (MDA-MB-231; read-out: GI50) was 11.1 µM. For the same molecule, the CC50 (MDA-MB-231; [7]) was > 50 µM, the TGI (MDA-MB-231; read-out: TGI) was > 50 µM and the GI50 (MDA-MB-231; read-out: pGI50 (converted)) was 10.5 µM. For the same molecule, the CC50 (MDA-MB-231; [6]) was > 50.1 µM, the TGI (MDA-MB-231; read-out: pTGI) was > 50.1 µM and the growth at 0.5 µM (UACC-257) was 93%. It also gave a growth at 0.5 µM (OVCAR-3) of 104%, a growth at 0.5 µM (786-0 [2]) of 97% and a growth at 0.5 µM (DU-145) of 102%. The growth at 0.5 µM [3] was 86%, the growth at 0.5 µM (NCI-H460 [4]) was 95% and the growth at 0.5 µM (SNB-19) was 93%. It also gave a growth at 0.5 µM (MDA-MB-435) of 99%, a growth at 5 µM (NCI-H23) of 95% and a growth at 5 µM (NCI-H322M) of 92%. For the same molecule, the growth at 5 µM (NCI-H460 [5]) was 92%.
